IC50 data for 36 compounds are collected here from patent US9770452B2, “Quinoxaline derivatives as GPR6 modulators” (Takeda Pharmaceutical Company Limited, priority 2012, dated 2017).

Counter-ions that a name gives are not always drawn.

T1 sequence (P46095 whole entry): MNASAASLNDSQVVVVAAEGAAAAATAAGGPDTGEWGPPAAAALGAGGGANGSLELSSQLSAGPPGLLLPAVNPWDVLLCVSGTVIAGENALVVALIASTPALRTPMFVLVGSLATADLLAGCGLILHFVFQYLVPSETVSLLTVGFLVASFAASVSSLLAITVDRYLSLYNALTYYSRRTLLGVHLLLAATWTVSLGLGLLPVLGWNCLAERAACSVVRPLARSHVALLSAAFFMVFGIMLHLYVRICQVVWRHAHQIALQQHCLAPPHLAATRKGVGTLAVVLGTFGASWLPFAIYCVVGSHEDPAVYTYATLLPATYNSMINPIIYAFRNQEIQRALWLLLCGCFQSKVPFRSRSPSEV

This experiment concerns the target T1, GPR6 receptor (Homo sapiens, UniProt P46095).
T1 construct: expressed in transfected cells
In words: Inhibition of cAMP Activity of GPR6 In Vitro Assay (CHO-K1 cells, HTRF cAMP). It counts as cell-based. The note with it: compounds of Compound Table 1; inhibition of constitutive cAMP activity of GPR6 expressed in CHO-K1 cells; approximate IC50; read-out: IC50. As to the method: Inhibition of cAMP Activity of GPR6 In Vitro Assay
This cell based assay measures the ability of compounds to inhibit the constitutive cAMP activity of GPR6 receptor expressed in CHO-K1 cells. CHO cells were stably expressed with GPR6 receptor, whose expression is controlled by a tetracycline inducable element. The cells were cultured in medium containing F12K, 10% FBS, 1% Penn/Strep, 200 ug/mL Hygromycin. GPR6 receptor expression was induced for 20 hrs with 1 μg/ml doxycycline (sigma D9891) in growth media. After addition of doxycycline cells were plated at a density of 250-500 cells per well in half-volume black clear bottom plates (Costar) and place in an incubator (37°, 5% C(O)2) for 20 hours prior to cAMP assays.
Culture media was removed from cells and they were washed with 50 μL of Ringer's Buffer (MgCl2 0.047 mg/mL, NaH2PO4 0.18 mg/mL, Na2HPO4 0.1 mg/mL, KCl 0.34 mg/mL, NaHC(O)3 1.26 mg/mL, D-glucose 1.8 mg/mL, NaCl 7 mg/mL; pH=7.4). Compounds suspended in DMSO were diluted in Ringer's Buffer containing 0.5% fatty acid free BSA and incubated on cells for 45 min at […] and 5% C(O)2. After incubation cells were incubated for 10 min at room temp with Eu-cAMP tracer solution from a Perkin Elmer Lance HTRF UltracAMP assay kit (TRF0264). Then ULight™-anti-cAMP solution from the Lance HTRF kit was added and incubated on a shaker at room temp for 1 hour prior to HTRF detection in a BMG PolarStar Omega.
IC50 curves were generated with a four-parameter logistic equation using GraphPad Prism 5.03.
In the case of `Clc1cccc(CN2CCN(c3nc4cccnc4nc3Nc3ccccc3)CC2)c1` [Cpd 22, 2-(4-(3-chlorobenzyl)piperazin-1-yl)-N-phenylpyrido[2,3-b]pyrazin-3-amine, 2,2,2-trifluoroacetic acid salt], the IC50 is 7.67 µM. In the case of “2-(cyclopropylamino)-3-(4-((2-fluorophenyl)sulfonyl)piperazin-1-yl)quinoxaline-6-carbonitrile, 2,2,2-trifluoroacetic acid salt [Cpd 241]” it was 0.65 µM; in that of “(4-chloro-2-(trifluoromethyl)phenyl)(4-(2-(cyclopropylamino)pyrido[3,4-b]pyrazin-3-yl)piperazin-1-yl)methanone, 2,2,2-trifluoroacetic acid salt [Cpd 392]”, 0.26 µM; in that of `O=C(c1ccsc1Cl)C1CCN(c2nc3cnccc3nc2NC2CC2)CC1` [Cpd 572, (2-chlorothiophen-3-yl)(1-(2-(cyclopropylamino)pyrido[3,4-b]pyrazin-3-yl)piperidin-4-yl)methanone, hydrogen chloride salt], 0.021 µM.

Regarding “2-(cyclopropylamino)-3-(4-(phenylsulfonyl)piperazin-1-yl)quinoxaline-6-carbonitrile [Cpd 162]”, the IC50 is 4.63 µM. For “(S)—N-cyclopropyl-3-(4-((2,4-difluorophenyl)fluoromethyl)piperidin-1-yl)-7-methylpyrido[3,4-b]pyrazin-2-amine, 2,2,2-trifluoroacetic acid salt [Cpd 502]” the value was 1.43 µM. With “3-(4-(2,5-difluorobenzoyl)piperidin-1-yl)-2-(isopropylamino)pyrido[3,4-b]pyrazine-7-carbonitrile, 2,2,2-trifluoroacetic acid salt [Cpd 631]”, the IC50 turned out to be 0.006 µM. In the case of `CC(C)Nc1nc2cnncc2nc1N1CCC(Oc2ccc(F)cc2F)CC1` [Cpd 633, 3-(4-(2,4-difluorophenoxy)piperidin-1-yl)-N-isopropylpyrazino[2,3-d]pyridazin-2-amine, 2,2,2-trifluoroacetic acid salt] it was 0.004 µM; in that of “N-cyclopropyl-3-(4-(2,3,5-trichlorobenzyl)piperazin-1-yl)quinoxalin-2-amine, 2,2,2-trifluoroacetic acid salt [Cpd 221]”, 20.4 µM; in that of “3-(4-(5-chloro-2-fluorobenzoyl)piperidin-1-yl)-2-(cyclopropylamino)quinoxaline-6-carbonitrile, 2,2,2-trifluoroacetic acid salt [Cpd 469]”, 0.09 µM.

Take “3-(cyclopropylamino)-2-(4-(2,5-dichlorobenzyl)piperazin-1-yl)quinoxaline-5-carbonitrile, 2,2,2-trifluoroacetic acid salt [Cpd 248]”: the IC50 worked out at 1.85 µM. Turning to `COCCCNc1nc2ccccc2nc1N1CCN(Cc2cc(Cl)ccc2Cl)CC1` [Cpd 66, 3-(4-(2,5-dichlorobenzyl)piperazin-1-yl)-N-(3-methoxypropyl)quinoxalin-2-amine], the half-maximal inhibitory concentration (IC50) turned out to be 1.94 µM. In the case of “N-cyclopropyl-3-(4-(3-methoxyphenoxy)piperidin-1-yl)pyrido[3,4-b]pyrazin-2-amine, 2,2,2-trifluoroacetic acid salt [Cpd 558]” it was 1.94 µM. “3-(4-(4-chloro-3-methylbenzyl)piperazin-1-yl)-N-cyclopropylquinoxalin-2-amine, 2,2,2-trifluoroacetic acid salt [Cpd 194]”: the IC50 was determined as 3.64 µM.

With “N-cyclopropyl-3-(4-((2,5-difluorophenyl)difluoromethyl)piperidin-1-yl)pyrido[3,4-b]pyrazin-2-amine [Cpd 540]”, the IC50 was determined as 0.046 µM. For “(4-chloro-2-fluorophenyl)(4-(2-((2,2-difluoroethyl)amino)pyrido[3,4-b]pyrazin-3-yl)piperazin-1-yl)methanone, 2,2,2-trifluoroacetic acid salt [Cpd 369]” the value was 0.4 µM; for `COc1ccc(Br)c(C(=O)N2CCN(c3nc4ccccc4nc3NC3CC3)CC2)c1` [Cpd 85, (2-bromo-5-methoxyphenyl)(4-(3-(cyclopropylamino)quinoxalin-2-yl)piperazin-1-yl)methanone, 2,2,2-trifluoroacetic acid salt], 7.55 µM; for “3-(4-(2,5-dichlorobenzyl)piperazin-1-yl)-N-(pyrimidin-4-yl)quinoxalin-2-amine, 2,2,2-trifluoroacetic acid salt [Cpd 174]”, 1.67 µM. In the case of “3-(4-(2,5-difluorobenzoyl)piperidin-1-yl)-2-(isopropylamino)-N,N-dimethylpyrido[3,4-b]pyrazine-7-carboxamide, 2,2,2-trifluoroacetic acid salt [Cpd 635]” it was 0.04 µM. For `Clc1cccc(CN2CCN(c3nc4ccccc4nc3NC3CC3)CC2)c1` [Cpd 5, 3-(4-(3-chlorobenzyl)piperazin-1-yl)-N-cyclopropylquinoxalin-2-amine, 2,2,2-trifluoroacetic acid salt] the value was 40.6 µM; for `Cc1cccc(CN2CCN(c3nc4ccccc4nc3NC3CC3)CC2)c1` [Cpd 1, N-cyclopropyl-3-(4-(3-methylbenzyl)piperazin-1-yl)quinoxalin-2-amine, 2,2,2-trifluoroacetic acid salt], 17.7 µM; for “3-(4-((4-chlorophenyl)sulfonyl)piperazin-1-yl)-2-(cyclopropylamino)quinoxaline-6-carbonitrile, 2,2,2-trifluoroacetic acid salt [Cpd 227]”, 3.29 µM. For the compound “(2-chloro-6-fluorophenyl)(1-(2-(cyclopropylamino)pyrido[3,4-b]pyrazin-3-yl)piperidin-4-yl)methanone [Cpd 575]”, the IC50 turned out to be 6.75 µM. In the case of `Cc1cc(C)c2nc(N3CCN(Cc4cc(Cl)ccc4Cl)CC3)c(NC3CC3)nc2c1` [Cpd 103, N-cyclopropyl-3-(4-(2,5-dichlorobenzyl)piperazin-1-yl)-5,7-dimethylquinoxalin-2-amine] it was 5.31 µM.

On to “(2-chlorophenyl)(1-(2-(cyclopropylamino)pyrido[3,4-b]pyrazin-3-yl)piperidin-4-yl)methanone, 2,2,2-trifluoroacetic acid salt [Cpd 557]”, for which the IC50 amounted to 1.92 µM. For “8-chloro-N-cyclopropyl-3-(4-((2,5-difluorophenyl)fluoromethyl)piperidin-1-yl)pyrido[3,4-b]pyrazin-2-amine, 2,2,2-trifluoroacetic acid salt [Cpd 486]”, the IC50 came to 0.098 µM. As to `Fc1ccc(Nc2nc3ccccc3nc2N2CCN(Cc3cccc(Cl)c3)CC2)cc1` [Cpd 38, 3-(4-(3-chlorobenzyl)piperazin-1-yl)-N-(4-fluorophenyl)quinoxalin-2-amine, 2,2,2-trifluoroacetic acid salt], the IC50 amounted to 5.73 µM.

Turning to “N-cyclopropyl-3-(4-(2,5-difluorophenoxy)piperidin-1-yl)pyrido[3,4-b]pyrazin-2-amine, 2,2,2-trifluoroacetic acid salt [Cpd 431]”, the IC50 was 0.17 µM. Regarding “N-cyclopropyl-3-(4-((4-fluorophenyl)sulfonyl)piperazin-1-yl)pyrido[3,4-b]pyrazin-2-amine, 2,2,2-trifluoroacetic acid salt [Cpd 288]”, the IC50 is 2.65 µM. In the case of “3-(4-(2,4-difluorobenzyl)piperidin-1-yl)-2-(isopropylamino)quinoxaline-6-carbonitrile [Cpd 461]”, the IC50 was determined as 0.02 µM. For “3-(4-(2,4-difluorophenoxy)piperidin-1-yl)-N-isopropylpyrazino[2,3-d]pyridazin-2-amine, 2,2,2-trifluoroacetic acid salt [Cpd 632]”, the IC50 is 0.028 µM. In the case of “N-cyclopropyl-3-(4-(2,4-difluorobenzyl)piperidin-1-yl)-6-fluoroquinoxalin-2-amine, 2,2,2-trifluoroacetic acid salt [Cpd 479]” it was 0.14 µM.

Consider “3-(4-((4-chloro-2,5-dimethylphenyl)sulfonyl)piperazin-1-yl)-2-(cyclopropylamino)quinoxaline-6-carbonitrile, 2,2,2-trifluoroacetic acid salt [Cpd 281]”, for which the IC50 was 0.96 µM.

For the compound “3-(4-((2-chloro-4-(trifluoromethyl)phenyl)sulfonyl)piperazin-1-yl)-2-(cyclopropylamino)quinoxaline-6-carbonitrile, 2,2,2-trifluoroacetic acid salt [Cpd 330]”, the IC50 was found to be 0.029 µM.

Consider “2-(cyclopropylamino)-3-(4-((2,5-dimethoxyphenyl)sulfonyl)piperazin-1-yl)quinoxaline-6-carbonitrile, 2,2,2-trifluoroacetic acid salt [Cpd 329]”, for which the IC50 was found to be 1.3 µM. For `O=C(c1ccc(F)c(Br)c1)N1CCN(c2nc3ccccc3nc2NC2CC2)CC1` [Cpd 89, (3-bromo-4-fluorophenyl)(4-(3-(cyclopropylamino)quinoxalin-2-yl)piperazin-1-yl)methanone, 2,2,2-trifluoroacetic acid salt] the value was 4.78 µM.
